Assay results: patent US20120172350A1, “HISTAMINE H3 INVERSE AGONISTS AND ANTAGONISTS AND METHODS OF USE THEREOF” (SUNOVION PHARMACEUTICALS INC., priority 2009, published 2012)

System: Sprague-Dawley rats
Test: Rat EEG assay (wake, REM, non-REM states)
Type: in vivo
Details: for number of wake and non-REM sleep bouts / wake bout duration: hourly bins, EEG; for wake promotion: male Sprague-Dawley rats, dosed in middle of inactive period, first 6 hours post-dosing; for time spent in REM sleep / time spent in non-REM sleep / time spent in wake: relative to vehicle treated animals, 6 hour recording; for normalized power in the 40-60 Hz range (EEG spectral analysis): wake EEG spectra, shift to higher frequencies
Method: The rat EEG assay was designed to measure electrical signals from the brain as a proxy for in vivo biological activity at the H3 receptor.
Specifically, animals were housed in a temperature-controlled recording room under a 12 hour/12 hour light/dark cycle, with food and water available ad libitum. Eight male Sprague-Dawley rats were implanted with chronic recording devices for continuous recordings of electroencephalograph (EEG) via telemetry (Data Sciences Inc). A repeated measures design was employed in which each rat received eight separate dosings of the compound being tested with a minimum of 3 days between doses. […] EEG data were scored visually in 10 second epochs for wake, REM, and non-REM states. Scored data were analyzed and expressed as time spent in each state per hour. Cumulative time spent in wake, non-REM, and REM states were calculated for the 6 hour recording period. To determine whether any of the pharmacological treatments affected the consolidation of behavioral states, the duration and number of bouts for each state were calculated in hourly bins. A “bout” consisted of a minimum of two consecutive 10-second epochs of a given state and ended with any single state change epoch. The EEG spectra during wake and non-REM sleep were analyzed offline with a fast Fourier transform algorithm (NeuroScore software, Data Sciences Inc) on all epochs without a visually detectable artifact. Wake EEG spectra were analyzed in 1 Hz bins. Data were analyzed using two-way repeated-measures ANOVA.
For both compounds, there was an increase in the time spent in wake, a decrease in the time spent in non-REM sleep, and no change in the time spent in REM sleep relative to vehicle treated animals.

| SMILES | number of wake and non-REM sleep bouts | wake bout duration | wake promotion | time spent in REM sleep | time spent in non-REM sleep | time spent in wake | normalized power in the 40-60 Hz range (EEG spectral analysis) |
| --- | --- | --- | --- | --- | --- | --- | --- |
| c1cn2cc(-c3ccc4c(c3)nc3n4CCN4CCCC[C@@H]4C3)ccc2n1 (single isomer, unassigned) [Compound 48] | decrease | increase | wake promoting | no change | decrease | increase | increase |
| c1cn2cc(-c3ccc4c(c3)nc3n4CCCN(C4CCC4)CC3)ccc2n1 [Compound 59, 3-cyclobutyl-10-(imidazo[1,2-a]pyridin-6-yl)-1,2,3,4,5,6-hexahydrobenzo[4,5]imidazo[1,2-a][1,5]diazocine] | decrease | increase | wake promoting | no change | decrease | increase | increase |
